ChEMBL document CHEMBL3351946, “Design and synthesis of potent antitumor water-soluble phenyl N-mustard-benzenealkylamide conjugates via a bioisostere approach” (Eur J Med Chem, 2014)
Activity calls are given as the source filed them. No cut-off for these calls is given here.

Legend:
[1] = tested on: CCRF-CEM; test: Cytotoxicity against vinblastine-resistant human CCRF-CEM cells assessed as growth inhibition after 72 hrs by Alamar Blue assay; type: functional, cell-based
[2] = Cytotoxicity against human PC3 cells assessed as growth inhibition after 72 hrs by Alamar Blue assay; type: functional, cell-based; conditions: PC-3, 72 h
[3] = Cytotoxicity against human H3347 cells assessed as growth inhibition after 72 hrs by Alamar Blue assay; type: functional, cell-based; conditions: H3347, 72 h
[4] = Antitumor activity against human HCT116 cells xenografted in nude mouse assessed as tumor growth inhibition at 30 mg/kg,iv qd administered for 6 days measured on day 15 relative to control; type: functional, HCT-116
[5] = Antitumor activity against human PC3 cells xenografted in nude mouse assessed as tumor growth inhibition at 30 mg/kg,iv qd administered for 6 days measured on day 21 relative to control; type: functional, PC-3
[6] = Antitumor activity against human H460 cells xenografted in nude mouse assessed as tumor growth inhibition at 30 mg/kg,iv qd administered for 6 days measured on day 19 to 26 relative to control; type: functional, NCI-H460
[7] = Antitumor activity against human HCT116 cells xenografted in nude mouse assessed as tumor growth inhibition at 30 mg/kg,iv qd administered for 6 days measured on day 31 relative to control; type: functional; conditions: HCT-116, iv, read-out: TGI
[8] = Antitumor activity against human H460 cells xenografted in nude mouse assessed as tumor growth inhibition at 30 mg/kg,iv qd administered for 6 days measured on day 37 relative to control; type: functional; conditions: NCI-H460, iv, read-out: TGI
[9] = tested on: Mus musculus; test: Toxicity in nude mouse xenografted with human HCT116 cells assessed as body weight loss at 30 mg/kg,iv qd administered for 6 days measured on day 13 relative to control; type: organism-based, HCT-116; set-up: dose 30 mg/kg; conditions: in vivo, 144 h
[10] = tested on: Mus musculus; test: Toxicity in nude mouse xenografted with human PC3 cells assessed as body weight loss at 30 mg/kg,iv qd administered for 6 days measured on day 13 relative to control; type: organism-based, PC-3; set-up: dose 30 mg/kg; conditions: in vivo, 144 h
[11] = tested on: Mus musculus; test: Toxicity in nude mouse xenografted with human PC3 cells assessed as body weight loss at 50 mg/kg,iv administered every 2 days for 5 doses measured on day 16 relative to control; type: organism-based, PC-3; set-up: dose 50 mg/kg; conditions: in vivo, 48 h
[12] = tested on: Mus musculus; test: Toxicity in nude mouse xenografted with human H460 cells assessed as body weight loss at 30 mg/kg,iv qd administered for 6 days measured on day 15 relative to control; type: organism-based; set-up: dose 30 mg/kg; conditions: in vivo, 144 h
[13] = tested on: Mus musculus; test: Toxicity in nude mouse xenografted with human H3347 cells assessed as body weight loss at 30 mg/kg,iv qd administered for 6 days measured on day 13 relative to control; type: organism-based; set-up: dose 30 mg/kg; conditions: in vivo, 144 h
[14] = tested on: PC-3; test: Antitumor activity against human PC3 cells xenografted in nude mouse assessed as survival at 30 mg/kg,iv qd administered for 6 days; type: functional, organism-based; set-up: dose 30 mg/kg
[15] = tested on: PC-3; test: Antitumor activity against human PC3 cells xenografted in nude mouse assessed as survival at 40 mg/kg,iv administered every 2 days for 5 doses; type: functional, organism-based; set-up: dose 40 mg/kg
[16] = tested on: NCI-H460; test: Antitumor activity against human H460 cells xenografted in nude mouse assessed as survival at 30 mg/kg,iv qd administered for 6 days; type: functional, organism-based; set-up: dose 30 mg/kg
[17] = Antitumor activity against human HCT116 cells xenografted in nude mouse assessed as tumor growth inhibition at 75 mg/kg,[…] ip administered every 7 days for 2 doses relative to control; type: functional; conditions: HCT-116, ip, 168 h, route intraperitoneal, read-out: TGI
[18] = Cell cycle arrest in human HCT116 cells assessed as accumulation at S phase at 1 uM after 24 hrs by FACS flow cytometric analysis (reference value: 18.71 +/- 2.25%); type: functional, cell-based; conditions: HCT-116
[19] = Cell cycle arrest in human HCT116 cells assessed as accumulation at sub-G1 phase at 2 uM after 24 hrs by FACS flow cytometric analysis (reference value: 1.37 +/- 0.95%); type: functional, cell-based; conditions: HCT-116
[20] = Cell cycle arrest in human HCT116 cells assessed as accumulation at S phase at 2 uM after 24 hrs by FACS flow cytometric analysis (reference value: 18.71 +/- 2.25%); type: functional, cell-based; conditions: HCT-116
[21] = Cell cycle arrest in human HCT116 cells assessed as accumulation at sub-G1 phase at 4 uM after 24 hrs by FACS flow cytometric analysis (reference value: 1.37 +/- 0.95%); type: functional, cell-based; conditions: HCT-116
[22] = Cell cycle arrest in human HCT116 cells assessed as accumulation at S phase at 4 uM after 24 hrs by FACS flow cytometric analysis (reference value: 18.71 +/- 2.25%); type: functional, cell-based; conditions: HCT-116
[23] = Cell cycle arrest in human HCT116 cells assessed as accumulation at S phase at 1 uM after 48 hrs by FACS flow cytometric analysis (reference value: 12.11 +/- 4.28%); type: functional, cell-based; conditions: HCT-116
[24] = Cell cycle arrest in human HCT116 cells assessed as accumulation at G2/M phase at 1 uM after 48 hrs by FACS flow cytometric analysis (reference value: 23.95 +/- 1.87%); type: functional, cell-based; conditions: HCT-116
[25] = Cell cycle arrest in human HCT116 cells assessed as accumulation at S phase at 4 uM after 48 hrs by FACS flow cytometric analysis (reference value: 12.11 +/- 4.28%); type: functional, cell-based; conditions: HCT-116
[26] = Cell cycle arrest in human HCT116 cells assessed as accumulation at S phase at 1 uM after 72 hrs by FACS flow cytometric analysis (reference value: 7.49 +/- 0.95%); type: functional, cell-based; conditions: HCT-116
[27] = Cell cycle arrest in human HCT116 cells assessed as accumulation at G2/M phase at 1 uM after 72 hrs by FACS flow cytometric analysis (reference value: 12.82 +/- 2.19%); type: functional, cell-based; conditions: HCT-116
[28] = Cell cycle arrest in human HCT116 cells assessed as accumulation at S phase at 2 uM after 72 hrs by FACS flow cytometric analysis (reference value: 7.49 +/- 0.95%); type: functional, cell-based; conditions: HCT-116
[29] = Cell cycle arrest in human HCT116 cells assessed as accumulation at G1 phase at 4 uM after 72 hrs by FACS flow cytometric analysis (reference value: 76.29 +/- 2.65%); type: functional, cell-based; conditions: HCT-116
[30] = Cell cycle arrest in human HCT116 cells assessed as accumulation at G2/M phase at 4 uM after 72 hrs by FACS flow cytometric analysis (reference value: 12.82 +/- 2.19%); type: functional, cell-based; conditions: HCT-116
[31] = Cell cycle arrest in human HCT116 cells assessed as accumulation at G2/M phase after 24 hrs by FACS flow cytometric analysis; type: functional, cell-based; conditions: HCT-116
[32] = tested on: HCT-116; test: Induction of apoptosis in human HCT116 cells assessed as PARP cleavage at 1 to 4 uM after 24 hrs by Western blot analysis; type: functional, cell-based
[33] = Oral bioavailability in Sprague-Dawley rat at 50 mg/kg; type: ADME, organism-based; conditions: in vivo
[34] = tested on: Mus musculus; test: Toxicity in iv dosed CD-1 (ICR) mouse assessed as soft feces measured for 14 days; type: organism-based; conditions: in vivo, 336 h
[35] = tested on: Mus musculus; test: Toxicity in CD-1 (ICR) mouse assessed as decrease in food consumption at 75 to 105 mg/kg, iv measured on day 8; type: organism-based; set-up: dose 75-105 mg/kg, route intravenous; conditions: in vivo
[36] = tested on: Mus musculus; test: Toxicity in CD-1 (ICR) mouse assessed as gross lesions in spleen at 150 mg/kg, iv measured for 14 days; type: organism-based; set-up: dose 150 mg/kg, route intravenous; conditions: in vivo, 336 h
[37] = Toxicity in iv dosed CD-1 (ICR) mouse measured for 14 days; type: organism-based; conditions: in vivo

SMILES: CCN(CC)CC(=O)Nc1ccc(NC(=O)Nc2ccc(N(CCCl)CCCl)cc2)cc1
- IC50 [1]: 2160 nM
- IC50 [2]: 3570 nM
- IC50 [3]: 870 nM
- %max [4]: 91%
- %max [5]: 56%
- %max [6]: 61%
- inhibition in vivo at 30 mg/kg [7]: 84%
- inhibition in vivo at 30 mg/kg [8]: 53%
- body weight change relative to control [9]: -5%
- %max [10]: -15%
- %max [11]: -16%
- %max [12]: -18%
- Activity [13]: 10%
- Activity [14]: Active
- Activity [15]: Active
- Activity [16]: Active
- inhibition in vivo at 75 mg/kg [17]: 54%
- Activity [18]: 18.7%
- Activity [19]: 1.55%
- Activity [20]: 23.9%
- Activity [21]: 4.31%
- Activity [22]: 27.6%
- Activity [23]: 11.9%
- Activity [24]: 28.2%
- Activity [25]: 16.6%
- Activity [26]: 11.7%
- Activity [27]: 20.5%
- Activity [28]: 12.1%
- Activity [29]: 18.1%
- Activity [30]: 41.4%
- Activity [31]: Dose-dependent effect
- Activity [32]: Active
- bioavailability [33]: 5.32%
- Activity [34]: Dose-dependent effect
- Activity [35]: Toxic
- Activity [36]: Toxic
- LD50 at 336 h [37]: 115 mg/kg
